Patent US20090053721A1, “VOLTAGE-GATED ION CHANNEL MUTANTS FOR USE IN IDENTIFYING ION CHANNEL MODULATING COMPOUNDS” (CARDIOME PHARMA CORP., priority 2007, published 2009)
Where “and” joins values, the source holds several entries; their conditions need not be identical. Identical values can stand only once. Counter-ions that a name gives are not always drawn.

Key:
Type in all cases: cell-based
[1] = target: T1, Kv1.5 WT channel (Homo sapiens, UniProt P22460); experiment: Whole-cell patch-clamp block of wild-type Kv1.5 current in HEK293 cells
T1 construct: subcloned as a fragment back into full-length Kv1.5; expressed in transfected cells
Excerpt: (§1) Stable lines of HEK293 cells expressing Kv1.5, or transient transfection of mutant Kv1.5 channels were used in all experiments. Primers to generate mutant channels were synthesized by Integrated DNA Technologies, Inc. (Coralville, Iowa, USA), and mutants were generated using the Stratagene Quikchange kit (Stratagene, Calif., USA). The presence of the mutation was confirmed by DNA sequencing, and because of the size of the WT Kv1.5 clone, only the sequenced region harboring the targeted nucleotides was subcloned as a fragment back into full-length Kv1.5. Transient transfections were performed with HEK 293 cells plated at 20-30% confluency on sterile coverslips in 25 mm Petri dishes one day prior to transfection. 0.1-4 μg of ion channel DNA was incubated with 1 μg of eGFP DNA (to enable detection of transfected cells) and 2 μl of lipofectamine 2000 (Invitrogen) in 100 μl of Opti-MEM. This was added to the cells for overnight incubation after washing the media with 900 μl of MEM with 10% FBS.
(§2) The cells were grown in Minimal Essential Medium (MEM) at 37° C. in an air/5% CO2 incubator. Media contained 10% bovine serum and 0.5 mg/ml geneticin for stable lines. On the day before recording, stably-expressing cells were washed with MEM, treated with trypsin/EGTA for one minute and plated on 25 mm^2 coverslips. All cell culture supplies were obtained from Invitrogen (Mississauga, ON, Canada).
Control bath solution contained (in mM): 5 KCl, 135 NaCl, 2.8 sodium acetate, 1 MgCl2, 10 HEPES and 1 CaCl2, adjusted to pH 7.4 with NaOH. Patch pipettes contained (in mM): 130 KCl, 5 EGTA, 1 MgCl2, 10 HEPES, 4 Na2ATP, and 0.1 GTP, adjusted to pH 7.2 with KOH. All chemicals used to make solutions were obtained from Sigma-Aldrich (Mississauga, ON, Canada). […] Flecamide (Sigma-Aldrich, lot number 094K4057) was prepared as a stock solution (100 mM) in 100% DMSO. DMSO concentrations for either drug never exceeded 0.1% v/v in the final experimental solutions.
Coverslips with adherent cells plated on the surface were placed in a superfusion chamber (volume 300 μl) containing the control bath solution at 22° C. Whole-cell current recording and analysis were carried out using an Axopatch 200B amplifier and pClamp10 software (Axon Instruments, CA, USA). Patch electrodes were pulled from thin-walled borosilicate glass (World Precision Instruments, FL, USA) on a horizontal micropipette puller (Sutter Instruments, CA, USA). […] Analogue capacity compensation and 80% series resistance compensation were used during whole cell measurements. […] To assess drug block, half-log escalating concentrations of drug were added to the flowing bath solution and current traces were recorded with 400 ms depolarizing pulses to +60 mV at a frequency of 0.1 Hz. […]

[2] = target: T2, Kv1.5 V505A mutant channel (Homo sapiens, UniProt P22460, V505A); experiment: Voltage-dependence of block (Woodhull fit), V505A Kv1.5
T2 construct: subcloned as a fragment back into full-length Kv1.5; expressed in transfected cells; host or cells: HEK293, transient transfection
Protocol: Coverslips with adherent cells plated on the surface were placed in a superfusion chamber (volume 300 μl) containing the control bath solution at 22° C. Whole-cell current recording and analysis were carried out using an Axopatch 200B amplifier and pClamp10 software (Axon Instruments, CA, USA). Patch electrodes were pulled from thin-walled borosilicate glass (World Precision Instruments, FL, USA) on a horizontal micropipette puller (Sutter Instruments, CA, USA). […] Analogue capacity compensation and 80% series resistance compensation were used during whole cell measurements. Membrane potentials were not corrected for junction potentials that arise between the pipette and bath solution. For Kv1.5 current recordings, a holding potential of −80 mV was used. Data were sampled at 10-20 kHz and filtered at 5 to 10 kHz. To assess drug block, half-log escalating concentrations of drug were added to the flowing bath solution and current traces were recorded with 400 ms depolarizing pulses to +60 mV at a frequency of 0.1 Hz.
f=[D]/([D]+Kd*e^−δzFE/RT)
where F, R, z and T have their usual meanings, δ represents the fractional electrical distance, i.e., the fraction of the transmembrane electrical field sensed by a single charge at the receptor site. […] The current amplitude (Idrug and Icontrol) was measured at the end of a 400 ms depolarization. […]

[3] = target: T3, Kv1.5 A509G mutant channel (Homo sapiens, UniProt P22460, A509G); experiment: Whole-cell patch-clamp block of mutant Kv1.5 current in HEK293 cells; conditions: 10 μM vernakalant
T3 construct: subcloned as a fragment back into full-length Kv1.5; expressed in transfected cells; host or cells: HEK293, transient transfection
Excerpt: as §1, §2
(§3) Control bath solution contained (in mM): 5 KCl, 135 NaCl, 2.8 sodium acetate, 1 MgCl2, 10 HEPES and 1 CaCl2, adjusted to pH 7.4 with NaOH. Patch pipettes contained (in mM): 130 KCl, 5 EGTA, 1 MgCl2, 10 HEPES, 4 Na2ATP, and 0.1 GTP, adjusted to pH 7.2 with KOH. […]
(§4) Coverslips with adherent cells plated on the surface were placed in a superfusion chamber (volume 300 μl) containing the control bath solution at 22° C. […] To assess drug block, half-log escalating concentrations of drug were added to the flowing bath solution and current traces were recorded with 400 ms depolarizing pulses to +60 mV at a frequency of 0.1 Hz. […]

[4] = target: T4, Kv1.5 V481L mutant channel (Homo sapiens, UniProt P22460, V481L); experiment: as above; conditions: 10 μM vernakalant
T4 construct: subcloned as a fragment back into full-length Kv1.5; expressed in transfected cells; host or cells: HEK293, transient transfection
Excerpt: as §1, §2, §3, §4

[5] = target: T5, Kv1.5 V512L mutant channel (Homo sapiens, UniProt P22460, V512L); experiment: as above; conditions: 10 μM vernakalant
T5 construct: subcloned as a fragment back into full-length Kv1.5; expressed in transfected cells; host or cells: HEK293, transient transfection
Excerpt: as §1, §2, §3, §4

T1 sequence (P22460 whole entry, the tested form may be a part): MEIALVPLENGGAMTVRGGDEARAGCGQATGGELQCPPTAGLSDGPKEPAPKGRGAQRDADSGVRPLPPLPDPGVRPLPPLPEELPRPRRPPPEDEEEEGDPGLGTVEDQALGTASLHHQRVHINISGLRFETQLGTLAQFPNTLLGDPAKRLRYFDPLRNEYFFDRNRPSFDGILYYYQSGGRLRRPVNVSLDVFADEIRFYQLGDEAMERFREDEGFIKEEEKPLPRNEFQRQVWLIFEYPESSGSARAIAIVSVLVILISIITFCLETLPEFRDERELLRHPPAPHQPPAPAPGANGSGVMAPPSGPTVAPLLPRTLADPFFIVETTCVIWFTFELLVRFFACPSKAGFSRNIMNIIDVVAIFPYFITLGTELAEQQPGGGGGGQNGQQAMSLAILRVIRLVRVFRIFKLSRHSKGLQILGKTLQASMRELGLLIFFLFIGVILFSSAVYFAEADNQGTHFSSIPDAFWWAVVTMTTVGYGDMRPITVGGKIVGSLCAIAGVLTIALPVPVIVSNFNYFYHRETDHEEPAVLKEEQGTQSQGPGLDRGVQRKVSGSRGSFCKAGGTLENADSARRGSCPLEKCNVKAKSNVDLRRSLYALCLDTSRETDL
T2 sequence (P22460 whole entry V505A, the tested form may be a part): as the sequence (P22460 whole entry, the tested form may be a part) above, with V505A counted along it
T5 sequence (P22460 whole entry V512L, the tested form may be a part): as the sequence (P22460 whole entry, the tested form may be a part) above, with V512L counted along it
T4 sequence (P22460 whole entry V481L, the tested form may be a part): as the sequence (P22460 whole entry, the tested form may be a part) above, with V481L counted along it
T3 sequence (P22460 whole entry A509G, the tested form may be a part): as the sequence (P22460 whole entry, the tested form may be a part) above, with A509G counted along it

| Structure (SMILES) | IC50 ([1]; steady-state current, +60 mV) | change in electrical distance versus WT [2] | Hill coefficient [1] | reduction of outward current ([1]; 10 μM vernakalant) | Fractional Block ± SEM ([1]; 10 μM vernakalant, −80 to +60 mV, 400 ms, 0.1 Hz) | Fractional Block ± SEM [3] | Fractional Block ± SEM [4] | Fractional Block ± SEM [5] |
| --- | --- | --- | --- | --- | --- | --- | --- | --- |
| O=C(NCC1CCCCN1)c1cc(OCC(F)(F)F)ccc1OCC(F)(F)F (centres unmarked) [Flecainide] | 38.1 µM and 38 µM | significant increase in distance | – | – | – | – | – | – |
| COc1ccc(CCO[C@@H]2CCCC[C@H]2N2CC[C@@H](O)C2)cc1OC [Vernakalant, 3-Pyrrolidinol, 1-[(1R,2R)-2-[2-(3,4-dimethoxyphenyl)ethoxy]cyclohexyl]-,hydrochloride, (3R)] | – | – | 1.00 | approximately 50% | 0.45 ± 0.03 | 0.33 ± 0.07 | 0.36 ± 0.03 | 0.56 ± 0.04 |
